From US20250051327A1, “MALT-1 MODULATORS” (EXSCIENTIA AI LIMITED, priority 2020, published 2025)

Experiments:
[1] = target: Recombinant human MALT-1 (amino acids 340-824) (Homo sapiens (Human), UniProt Q9UDY8); assay: MALT-1 inhibition assay (fluorogenic substrate Ac-LRSR-Rh110-DP); format: biochemical; conditions: recombinant human MALT-1, substrate Ac-LRSR-Rh110-DP
Procedure: MALT-1 paracaspase activity was measured using the fluorogenic substrate Ac-LRSR-Rh110-DP (purchased from Biosantan GmbH). […] The reaction was initiated by addition of substrate. Final concentrations of MALT-1 and substrate were 3 nM and 10 μM respectively. Reactions were incubated in the dark for 60 minutes at 25° C. […] Percent inhibition values were calculated from relative fluorescence units at different doses and fitted to a 4-parameter logistic curve to determine IC50 values (see Table 1).

[2] = system: IL-2 secretion by human effector memory T cells (TEM); assay: Effector memory T cells IL-2 release assay; format: cell-based; conditions: T-cell; human CD4+ effector memory T cells, CD3/CD28 bead stimulation, 24 h; read-out: CD4TC IL2 IC50
Procedure: Effector Memory T Cells IL-2 Release Assay
Test compound-mediated inhibition of NFκB signalling in T cells was assessed by quantification of the IL-2 secretion by human effector memory T cells (TEM) upon treatment and stimulation. Human TEM cells were isolated from buffy coats of healthy donors obtained from the French blood bank. First, peripheral blood mononuclear cells (PBMC) were purified from buffy coats diluted 1:1 with DPBS (Gibco, cat #14190-094) by Pancoll (PAN BIOTECH, cat #P04-60500) density gradient centrifugation at 400×g for 20 minutes. TEM cells were further enriched by negative immuno-magnetic cell sorting using a human CD4+ Effector Memory T Cell Isolation Kit (Miltenyi, cat #130-094-125) according to the manufacturer's instructions. Aliquots of 3×10E6 purified TEM cells were kept frozen in Cryo-SFM medium (PromoCell, cat #C-29912) in gas phase nitrogen until used. Cell purity was verified by flow cytometry analysis of 200 000 PFA-fixed cells previously labelled with monoclonal antibodies anti-CD4-PerCP-Cy5.5 (BD Pharmigen, cat #332772), anti-CD8-V500 (BD Biosciences, cat #561617), anti-CD14-Pacific Blue (Biolegend, cat #325616), anti-CD45 RA-FITC (Biolegend, cat #304106) and anti-CCR7-APC (in CD4+ Effector Memory T Cell Isolation Kit, Miltenyi, cat #130-094-125).
TEM cells were resuspended in complete RPMI medium composed of: RPMI 1640 (Gibco, cat #31870-025), 10% heat inactivated fetal bovine serum (Sigma, cat #F7524), 2 mM GlutaMAX (Gibco, cat #35050-038), 1 mM sodium pyruvate 100× (Gibco, cat #11360-039), 1% MEM non-essential amino acids solution (Gibco, cat #11140-035) and 100 U/mL penicillin, 100 μg/mL streptomycin (Sigma-Aldrich, cat #11074440001). 5,000 cells per well were plated onto flat clear bottom 384 well plates (Corning, cat #3770). 5,000 Dynabeads Human T-Activator CD3/CD28 (Gibco, cat #11132D) were added to each well for cell stimulation. Finally, 10 doses of test compound, originally prepared in DMSO by serial semi-log step dilution, were also added to cells in triplicate wells. Final DMSO concentration in wells was 0.1% in a total volume of 100 μL complete medium. Plates were incubated for 24 h at 37° C. in 5% CO2 atmosphere. After incubation, cell suspensions were centrifuged at 400×g and culture supernatants were recovered and stored at −80° C. Cell viability was assessed by flow cytometry after staining the cells with Fixable Viability Dye eFluor 780 (Invitrogen, cat #65-0865-14). IL-2 levels were determined in cell supernatants using an HTRF human IL-2 detection kit (Cisbio, cat #62HIL02PEH). IL-2 data at the different compound doses were fitted to a 4-parameter logistic curve to determine IC50 values, corresponding to the compound concentration leading to 50% reduction of the maximal IL-2 levels observed in each experiment. Viability data were analysed similarly to exclude cytotoxicity as a cause of IL-2 decrease (see Table 1).

Sequence of Recombinant human MALT-1 (amino acids 340-824) (Q9UDY8 340-824): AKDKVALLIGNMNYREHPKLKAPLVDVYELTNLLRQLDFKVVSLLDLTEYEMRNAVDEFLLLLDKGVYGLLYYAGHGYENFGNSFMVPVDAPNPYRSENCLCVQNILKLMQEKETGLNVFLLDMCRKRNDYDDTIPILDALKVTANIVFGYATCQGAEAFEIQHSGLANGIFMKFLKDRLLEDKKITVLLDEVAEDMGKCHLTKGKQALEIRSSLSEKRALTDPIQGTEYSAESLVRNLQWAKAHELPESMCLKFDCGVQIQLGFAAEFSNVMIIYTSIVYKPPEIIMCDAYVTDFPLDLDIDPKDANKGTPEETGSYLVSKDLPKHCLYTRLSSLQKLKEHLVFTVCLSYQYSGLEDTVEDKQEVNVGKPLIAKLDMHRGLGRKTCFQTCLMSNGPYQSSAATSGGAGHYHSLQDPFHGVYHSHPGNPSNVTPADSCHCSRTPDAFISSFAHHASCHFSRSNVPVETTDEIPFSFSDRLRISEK

IC50 [1]	IC50 [2]	Compound
134 nM	175 nM	CN(C(=O)[C@H]1CCS(=O)(=O)C1)[C@@H](c1ccc(N2CCCc3c2cnc2cc(Cl)nn32)cc1)C(F)(F)F (relative stereo) [CPD0022134, (3rel-R)-N-[(1S)-1-(4-{4-chloro-2,3,7,10-tetraazatricyclo[7.4.0.0^2,6]trideca-1(9),3,5,7-tetraen-10-yl}phenyl)-2,2,2-trifluoroethyl]-N-methyl-1,1-dioxo-1λ^6-thiolane-3-carboxamide]
84 nM	95 nM	CN(C(=O)[C@@H]1CCS(=O)(=O)C1)[C@@H](c1ccc(N2CCCc3c2cnc2cc(Cl)nn32)cc1)C(F)(F)F (relative stereo) [CPD0022135, (3rel-S)-N-[(1S)-1-(4-{4-chloro-2,3,7,10-tetraazatricyclo[7.4.0.0^2,6]trideca-1(9),3,5,7-tetraen-10-yl}phenyl)-2,2,2-trifluoroethyl]-N-methyl-1,1-dioxo-1λ^6-thiolane-3-carboxamide]
45 nM	106 nM	CN(C(=O)[C@H]1CC[S@@+]([O-])CC1)[C@@H](c1ccc(N2CCCc3c2cnc2cc(Cl)nn32)cc1)C(F)(F)F (relative stereo) [CPD0022136, (1rel-s,4rel-s)-N-[(1S)-1-(4-{4-chloro-2,3,7,10-tetraazatricyclo[7.4.0.0^2,6]trideca-1(9),3,5,7-tetraen-10-yl}phenyl)-2,2,2-trifluoroethyl]-N-methyl-1-oxo-1λ^4-thiane-4-carboxamide]
73 nM	127 nM	CN(C(=O)[C@H]1CC[S@+]([O-])CC1)[C@@H](c1ccc(N2CCCc3c2cnc2cc(Cl)nn32)cc1)C(F)(F)F (relative stereo) [CPD0022137, (1rel-r,4rel-r)-N-[(1S)-1-(4-{4-chloro-2,3,7,10-tetraazatricyclo[7.4.0.0^2,6]trideca-1(9),3,5,7-tetraen-10-yl}phenyl)-2,2,2-trifluoroethyl]-N-methyl-1-oxo-1λ^4-thiane-4-carboxamide]
32 nM	108 nM	CN(C(=O)[C@H]1CC[S@@](=N)(=O)CC1)[C@@H](c1ccc(N2CCCc3c2cnc2cc(Cl)nn32)cc1)C(F)(F)F (relative stereo) [CPD0072528, (1rel-s,4rel-S)-N-[(1S)-1-(4-{4-chloro-2,3,7,10-tetraazatricyclo[7.4.0.0^2,6]trideca-1(9),3,5,7-tetraen-10-yl}phenyl)-2,2,2-trifluoroethyl]-1-imino-N-methyl-1-oxo-1λ^6-thiane-4-carboxamide]
26 nM	94 nM	CN(C(=O)[C@H]1CC[S@](=N)(=O)CC1)[C@@H](c1ccc(N2CCCc3c2cnc2cc(Cl)nn32)cc1)C(F)(F)F (relative stereo) [CPD0072529, (1rel-r,4rel-r)-N-[(1S)-1-(4-{4-chloro-2,3,7,10-tetraazatricyclo[7.4.0.0^2,6]trideca-1(9),3,5,7-tetraen-10-yl}phenyl)-2,2,2-trifluoroethyl]-1-imino-N-methyl-1-oxo-1λ^6-thiane-4-carboxamide]
	163 nM	CN(C(=O)[C@H]1CC[S@@](=N)(=O)CC1)[C@@H](c1ccc(N2CC(C)(C)Cc3c2cnc2cc(Cl)nn32)cc1)C(F)(F)F [CPD0073498, (1rel s, 4rel s)-N-[(1S)-1-(4-{4-chloro-12,12-dimethyl-2,3,7,10-tetraazatricyclo[7.4.0.0^2,6]trideca-1(9),3,5,7-tetraen-10-yl}phenyl)-2,2,2-trifluoroethyl]-1-imino-N-methyl-1-oxo-1λ^6-thiane-4-carboxamide]
	209 nM	COC[C@@H]1CCN(c2ccc([C@H](N(C)C(=O)C3CCS(=O)(=O)CC3)C(F)(F)F)cc2)c2cnc3cc(Cl)nn3c21 [CPD0073503, N-[(1S)-1-[4-[(13rel-R)-4-chloro-13-(methoxymethyl)-2,3,7,10-tetrazatricyclo[7.4.0.0^2,6]trideca-1(9),3,5,7-tetraen-10-yl]phenyl]-2,2,2-trifluoro-ethyl]-N-methyl-1,1-dioxo-16-thiane-4-carboxamide]
	88 nM	COC[C@H]1CCN(c2ccc([C@H](N(C)C(=O)C3CCS(=O)(=O)CC3)C(F)(F)F)cc2)c2cnc3cc(Cl)nn3c21 [CPD0073504, N-[(1S)-1-[4-[(13rel-S)-4-chloro-13-(methoxymethyl)-2,3,7,10-tetrazatricyclo[7.4.0.0^2,6]trideca-1(9),3,5,7-tetraen-10-yl]phenyl]-2,2,2-trifluoro-ethyl]-N-methyl-1,1-dioxo-1λ^6-thiane-4-carboxamide]
	2070 nM	O=C(CC1CS(=O)(=O)C1)N[C@@H](c1ccc(N2CCCc3c2cnc2cc(Cl)nn32)cc1)C(F)(F)F [CPD0073535]
	104 nM	CN(C(=O)C1CCS(=O)(=O)CC1)[C@@H](c1ccc(N2CC[C@@]3(CCOC3)c3c2cnc2cc(Cl)nn32)cc1)C(F)(F)F [CPD0073762, N-[(1S)-1-[4-[(13rel-R)-4-chlorospiro[2,3,7,10-tetrazatricyclo[7.4.0.0^2,6]trideca-1(9),3,5,7-tetraene-13,3′-tetrahydrofuran]-10-yl]phenyl]-2,2,2-trifluoro-ethyl]-N-methyl-1,1-dioxo-1λ^6-thiane-4-carboxamide]
	109 nM	CN(C(=O)C1CCS(=O)(=O)CC1)[C@@H](c1ccc(N2CC[C@]3(CCOC3)c3c2cnc2cc(Cl)nn32)cc1)C(F)(F)F [CPD0073763, N-[(1S)-1-[4-[(13rel-S)-4-chlorospiro[2,3,7,10-tetrazatricyclo[7.4.0.0^2,6]trideca-1(9),3,5,7-tetraene-13,3′-tetrahydrofuran]-10-yl]phenyl]-2,2,2-trifluoro-ethyl]-N-methyl-1,1-dioxo-1λ^6-thiane-4-carboxamide]
	340 nM	CN(C(=O)[C@@H]1CS(=O)(=O)CC12COC2)[C@@H](c1ccc(N2CCCc3c2cnc2cc(Cl)nn32)cc1)C(F)(F)F [CPD0073974, (8rel-R)-N-[(1S)-1-(4-{4-chloro-2,3,7,10-tetraazatricyclo[7.4.0.0^2,6]trideca-1(9),3,5,7-tetraen-10-yl}phenyl)-2,2,2-trifluoroethyl]-N-methyl-6,6-dioxo-2-oxa-6λ^6-thiaspiro[3.4]octane-8-carboxamide]
	341 nM	CN(C(=O)[C@H]1CS(=O)(=O)CC12COC2)[C@@H](c1ccc(N2CCCc3c2cnc2cc(Cl)nn32)cc1)C(F)(F)F [CPD0073975, (8rel-S)-N-[(1S)-1-(4-{4-chloro-2,3,7,10-tetraazatricyclo[7.4.0.0^2,6]trideca-1(9),3,5,7-tetraen-10-yl}phenyl)-2,2,2-trifluoroethyl]-N-methyl-6,6-dioxo-2-oxa-6λ^6-thiaspiro[3.4]octane-8-carboxamide]
	34 nM	COc1ccc2ncc(Nc3ccc([C@H](N(C)C(=O)C4CCS(=O)(=O)CC4)C(F)(F)F)cc3)c([C@H]3CCOC3)c2n1 [CPD0074039]
	33 nM	COc1ccc2ncc(Nc3ccc([C@H](N(C)C(=O)C4CCS(=O)(=O)CC4)C(F)(F)F)cc3)c([C@@H]3CCOC3)c2n1 [CPD0074040]
	267 nM	COc1ccc2ncc(Nc3ccc([C@H](N(C)C(=O)C4CCS(=O)(=O)CC4)C(F)(F)F)cc3)c(C3(OC)COC3)c2n1 [CPD0076414, N-methyl-1,1-dioxo-N-[(1S)-2,2,2-trifluoro-1-[4-[6-methoxy-4-(3-methoxyoxetan-3-yl)-1,5-naphthyridin-3-yllamino]phenyl]ethyl]thiane-4-carboxamide]
